The record followed here is patent US20240083900A1, “PYRAZOLO[1,5-A]PYRAZINE DERIVATIVES AS BTK INHIBITORS” (BIOGEN MA INC., priority 2020, published 2024).

Experiment [1] deals with CD69 expression on CD19+ B cells in human whole blood stimulated with anti-human IgD. The experiment can be described thus: In Vitro whole blood CD69 Assay. The experiment is classed as cell-based. The conditions noted are these: Homo sapiens, B-cell, human heparinized whole blood, anti-human IgD stimulation overnight, percentage of CD19+ B cells expressing CD69, flow cytometry; read-out: IC50.

Another experiment concerns the target BTK (Homo sapiens (Human), UniProt Q06187). The experiment is described as follows: In Vitro BTK Kinase Assay: Btk-PolyGAT-LS Assay. The format is biochemical. The conditions noted are these: BTK enzyme 0.25 nM, ATP 10 μM, polyGAT 100 nM, 30 minutes incubation, TRF readout; read-out: IC50. In short, it runs like this: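 Human BTK activity was measured with final 10 μM ATP and 100 nM polyGAT substrate in pH 7.5 Tris buffer with 10 mM MgCl2, DTT, Triton X-100 and casein.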

BTK, sequence (Q06187 whole entry): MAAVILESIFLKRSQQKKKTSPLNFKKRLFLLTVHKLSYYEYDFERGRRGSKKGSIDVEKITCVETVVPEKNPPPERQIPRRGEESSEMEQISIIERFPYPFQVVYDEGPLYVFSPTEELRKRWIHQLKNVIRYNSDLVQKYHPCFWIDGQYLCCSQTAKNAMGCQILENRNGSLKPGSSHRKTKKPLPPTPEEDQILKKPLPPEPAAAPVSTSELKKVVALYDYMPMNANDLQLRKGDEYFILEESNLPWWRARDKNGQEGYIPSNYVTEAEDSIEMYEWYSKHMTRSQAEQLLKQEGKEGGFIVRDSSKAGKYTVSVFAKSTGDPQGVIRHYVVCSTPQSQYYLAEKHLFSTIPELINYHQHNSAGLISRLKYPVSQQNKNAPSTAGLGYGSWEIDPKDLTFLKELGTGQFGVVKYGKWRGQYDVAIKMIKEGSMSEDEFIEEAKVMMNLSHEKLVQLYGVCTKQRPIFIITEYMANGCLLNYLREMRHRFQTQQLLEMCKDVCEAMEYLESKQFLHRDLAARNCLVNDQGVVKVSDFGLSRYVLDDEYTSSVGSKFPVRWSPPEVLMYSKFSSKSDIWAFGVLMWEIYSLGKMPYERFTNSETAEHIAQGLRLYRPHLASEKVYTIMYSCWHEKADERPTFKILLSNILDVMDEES

Take `C=CC(=O)N1CCC[C@@H](Oc2nc(-c3cnn(C)c3)cn3ncc(F)c23)CC1` [Example 61, 1-[(4R)-4-[3-fluoro-6-(1-methylpyrazol-4-yl)pyrazolo[1,5-a]pyrazin-4-yl]oxyazepan-1-yl]prop-2-en-1-one]: the half-maximal inhibitory concentration (IC50) (in general, the concentration that gives 50% inhibition) in experiment [1] is less than 1000 nM; at BTK, less than 1 nM.

With `C=CC(=O)N1CCC[C@@H](Oc2nc(-c3cnn(C)c3)cn3ncc(C(F)(F)F)c23)CC1` [Example 62, 1-[(4R)-4-[6-(1-methylpyrazol-4-yl)-3-(trifluoromethyl)pyrazolo[1,5-a]pyrazin-4-yl]oxyazepan-1-yl]prop-2-en-1-one], the IC50 in experiment [1] fell in the range of 1000 to 10000 nM; at BTK, 1 to 10 nM.

With `C=CC(=O)N(C)[C@H]1C[C@@H](Oc2nc(-c3cnn(C)c3)cn3ncc(F)c23)C1` [Example 63, N-((cis)-3-((3-fluoro-6-(1-methyl-1H-pyrazol-4-yl)pyrazolo[1,5-a]pyrazin-4-yl)oxy)cyclobutyl)-N-methylacrylamide], the IC50 in experiment [1] was more than 10000 nM; at BTK, less than 1 nM.

With `C=CC(=O)N(C)[C@H]1C[C@H](Oc2nc(-c3cnn(C)c3)cn3ncc(C(F)F)c23)C1` [Example 64, N-((trans)-3-((3-(difluoromethyl)-6-(1-methyl-1H-pyrazol-4-yl)pyrazolo[1,5-a]pyrazin-4-yl)oxy)cyclobutyl)-N-methylacrylamide], the values for the 50% inhibitory concentration (IC50) (in experiment [1]; on BTK) were less than 1000 nM and 1 to 10 nM, respectively.

`C=CC(=O)N1CCC[C@@H](Oc2cc(-c3cnn(C)c3)cn3nccc23)CC1` [Example 66, 1-[(4R)-4-[6-(1-methylpyrazol-4-yl)pyrazolo[1,5-a]pyridin-4-yl]oxyazepan-1-yl]prop-2-en-1-one]: the IC50 was less than 1000 nM in experiment [1] and less than 1 nM on BTK.

For `C=CC(=O)N1CCC[C@@H](Oc2nc(-c3cnn(C)c3)cn3nc(N)cc23)CC1` [Example 67, 1-[(4R)-4-[2-amino-6-(1-methylpyrazol-4-yl)pyrazolo[1,5-a]pyrazin-4-yl]oxyazepan-1-yl]prop-2-en-1-one], the IC50 in experiment [1] is less than 1000 nM; at BTK, less than 1 nM.

Take `C=CC(=O)N1CCC[C@@H](Oc2nc(-c3cn(C)nc3C)cn3ncnc23)CC1` [Example 70, 1-[(4R)-4-[[6-(1,3-dimethylpyrazol-4-yl)-[1,2,4]triazolo[1,5-a]pyrazin-8-yl]oxy]azepan-1-yl]prop-2-en-1-one]: the results for the half-inhibitory concentration (IC50) (in experiment [1]; on BTK) were 1000 to 10000 nM and 1 to 10 nM, respectively.

Regarding `C=CC(=O)N1CCOCC1CCOc1cc(-c2cnn(C)c2)cn2nccc12` (stereo not shown) [Example 81, 1-(3-(2-((6-(1-methyl-1H-pyrazol-4-yl)pyrazolo[1,5-a]pyridin-4-yl)oxy)ethyl)morpholino)prop-2-en-1-one], the IC50 in experiment [1] lay within 1000 to 10000 nM; on BTK, 1 to 10 nM.

As for `CC#CC(=O)N1CC2(C1)CC(C)(Oc1nc(-c3cnn(C)c3)cn3ncc(F)c13)C2` [Example 86, 1-(6-((3-fluoro-6-(1-methyl-1H-pyrazol-4-yl)pyrazolo[1,5-a]pyrazin-4-yl)oxy)-6-methyl-2-azaspiro[3.3]heptan-2-yl)but-2-yn-1-one], the IC50 in experiment [1] is less than 1000 nM; at BTK, 1 to 10 nM.

Consider `CC#CC(=O)N(C)[C@H]1CCC[C@@H](Oc2nc(-c3cnn(C)c3)cn3ncc(F)c23)C1` [Example 92, N-((1S,3R)-3-((3-fluoro-6-(1-methyl-H-pyrazol-4-yl)pyrazolo[1,5-a]pyrazin-4-yl)oxy)cyclohexyl)-N-methylbut-2-ynamide], for which the IC50 in experiment [1] is 1000 to 10000 nM; on BTK, less than 1 nM.

With `CN(C)C/C=C/C(=O)N(C)[C@H]1CCC[C@@H](Oc2nc(-c3cnn(C)c3)cn3ncc(F)c23)C1` [Example 93, (E)-4-(dimethylamino)-N-((1S,3R)-3-((3-fluoro-6-(1-methyl-1H-pyrazol-4-yl)pyrazolo[1,5-a]pyrazin-4-yl)oxy)cyclohexyl)-N-methylbut-2-enamide], the IC50 in experiment [1] was less than 1000 nM; on BTK, 1 to 10 nM.
